# According to US8093211B2, “Methods and pharmaceutical compositions for healing wounds” (Bar-Ilan University, priority 2001, dated 2012):
# No end group written: not given here. *: point of attachment. Myristoyl = CCCCCCCCCCCCCC(=O)*
# What was measured:
# [1] = system: over-expressed PKC isoforms; assay: Translocation of over-expressed PKC isoforms by PKC activator in infected keratinocytes; format: cell-based, mouse; settings: stimulated for 30 minutes, 24 hours following infection
# Method: Four day old primary keratinocytes were infected for 1 hour with isoform specific recombinant PKC adenoviruses. Twenty four hours following infection, cells were either untreated (C) or stimulated with bryostatin 1 (B) for 30 minutes, and fractionated. Protein samples were subjected to Western blotting and analyzed using isoform specific anti-PKC antibodies.
# Preparation of cell extracts and Western blot analysis: For crude membrane fractions, whole cell lysates were prepared by scraping cells into PBS containing 10 μg/ml aprotinin, 10 μg/ml leupeptin, 2 μg/ml pepstatin, 1 mM PMSF, 10 mM EDTA, 200 μM NaVO4 and 10 mM NaF. After homogenization and 4 freeze/thaw cycles, lysates were spun down at 4° C. for 20 minutes in a microcentrifuge at maximal speed. The supernatant containing the soluble cytosol protein fraction was transferred to another tube. The pellet was resuspended in 250 μl PBS containing 1% Triton X-100 with protease and phosphatase inhibitors, incubated for 30 minutes at 4° C. and spun down in a microcentrifuge at maximal speed at 4° C. The supernatant contains the membrane fraction. Protein concentrations were measured using a modified Lowery assay (Bio-Rad DC Protein Assay Kit). Western blot analysis of cellular protein fractions was carried out as described (6). […]
# [2] = system: STAT3; assay: Insulin induced STAT3 activation and nuclear translocation in keratinocytes (immunofluorescence); format: cell-based, murine; settings: 5 μM Rottlerin for 7 minutes, followed by 10^−7 M insulin for 5 minutes
# Method: Primary keratinocytes were plated on glass slides and maintained for 5 days in low Ca^++ medium (0.05 mmol/l) until they reached 80% confluency. Cells were untreated (Cont, upper panel) or pre-treated with 5 μM Rottlerin for 7 minutes (R, lower panel), followed by 10^−7 M insulin for 5 minutes (Ins). Cells were fixed by methanol, washed and air-dried. Cultures were analyzed by immunofluorescence using antiphospho-Tyr-705-STAT3 antibody, followed by FITC conjugated secondary antibody. Cells were scanned by confocal microscopy.
# Immunofluorescence: Primary keratinocytes were plated on laminin 5 coated glass slides. Two days old keratinocytes were infected with PKC adenovirus for one hour, washed twice with PBS and maintained in culture in low Ca^2+ EMEM. Twenty four hours post infection, cells were fixed in 4% paraformaldehyde for 30 minutes followed by permeabilization with 0.2% Triton for 5 minutes. For analysis, control and PKC infected keratinocytes were rinsed with PBS and incubated overnight at 4° C. with PKC antibodies (Santa Cruz) diluted in 1% BSA in PBS. […] Following two washes in PBS, slides were mounted with glycerol buffer containing 1% of p-phenylenediamine (Sigma) and fluorescence examined by laser scanning confocal imaging microscopy (MRC 1024, Bio-Rad, UK).
# [3] = system: primary keratinocytes; assay: Keratinocyte proliferation by [3H]thymidine incorporation; format: cell-based, murine; settings: for concentration of maximal induction of thymidine incorporation: stimulated for 24 hours, proliferating keratinocytes in low Ca2+
# Method: Proliferating keratinocytes were maintained for five days in low Ca^2+ medium (0.05 mM) until they reached 80% confluence. (A) Five-day keratinocyte cultures were stimulated for 24 hours with insulin or IGF1 at the designated concentrations. (B) In parallel, keratinocytes were stimulated with 10^−7 M insulin (Ins) and increasing doses of IGF1 (IGF). At each concentration the right column (striped bar) represents proliferation observed when both hormones were added together. […] Thymidine incorporation was measured as described in experimental procedures. The results shown are representative of 6 experiments. Each bar represents the mean±SE of 3 determinations expressed as percent above control unstimulated keratinocytes.
# Non-infected (light blue bars), or cells over-expressing WTPKCδ (dark blue bars) or DNPKCδ (slashed blue bars) were treated for 24 hours with 10^−7 M insulin (Ins), 10^−8 M IGF1 (IGF) or both (Ins+IGF). Thymidine incorporation was measured as described in experimental procedures. Each bar represents the mean±SE of 3 determinations in 3 experiments done on separate cultures. Values are expressed as percent of control, unstimulated cells from the same culture in each experiment.
# Isolation and culture of murine keratinocytes: Primary keratinocytes were isolated from newborn skin as previously described (18). Keratinocytes were cultured in Eagle's Minimal Essential Medium (EMEM) containing 8% Chelex (Chelex-100, BioRad) treated fetal bovine serum. To maintain a proliferative basal cell phenotype, the final Ca^2+ concentration was adjusted to 0.05 mM. Experiments were performed five to seven days after plating.
# Cell proliferaion: Cell proliferation was measured by [^3H]thymidine incorporation in 24 well plates. Cells were pulsed with [^3H]thymidine (1 μCi/ml) overnight. After incubation, cells were washed five times with PBS and 5% TCA was added into each well for 30 minutes. The solution was removed and cells were solubilized in 1% Triton X-100. The labeled thymidine incorporated into cells was counted in a ^3H-window of a Tricarb liquid scintillation counter.
# [4] = system: PKCδ; assay: Translocation of PKCδ from cytosol to membrane in proliferating keratinocytes (Western blot); format: cell-based, murine; settings: 10^−7 M insulin or 10^−8 M IGF1; as early as 5 minutes following stimulation
# Method: Primary keratinocytes were isolated and plated as described in the Examples section that follows. Proliferating keratinocytes were maintained for five days in low Ca^2+ medium (0.05 mM) until they reached 80% confluency. Cells were stimulated with 10^−7 M insulin (Ins) or 10^−8 M IGF1 (IGF) for 15 minutes. Cells were lysed, as described, and 20 μg of membrane or cytosol extracts of stimulated and control unstimulated (Cont) cells were subjected to SDS-PAGE and transfer. Blots were probed with specific polyclonal antibodies to each PKC isoform.
# Isolation and culture of murine keratinocytes: Primary keratinocytes were isolated from newborn skin as previously described (18). […]
# Preparation of cell extracts and Western blot analysis: For crude membrane fractions, whole cell lysates were prepared by scraping cells into PBS containing 10 μg/ml aprotinin, 10 μg/ml leupeptin, 2 μg/ml pepstatin, 1 mM PMSF, 10 mM EDTA, 200 μM NaVO4 and 10 mM NaF. […] Protein concentrations were measured using a modified Lowery assay (Bio-Rad DC Protein Assay Kit). […]
# In order to try and identify the endogenous factors, which activate specific PKC isoforms regulating skin proliferation, the ability of several growth factors which are known to promote keratinocyte proliferation including: EGF, KGF, insulin, PDGF and IGF1 to activate specific PKC isoforms in a growth dependent manner was assessed. […]
# [5] = system: PKCδ; assay: PKCδ kinase activity of immunoprecipitates from stimulated keratinocytes; format: cell-based, murine; settings: 10^−7 M insulin or 10^−8 M IGF1 for 1, 15 or 30 minutes
# Method: To determine PKCδ activity, five-day keratinocyte cultures were stimulated with 10^−7 M insulin (Ins) or 10^−8 M IGF1 (IGF) for the designated times (1, 15, or 30 minutes). PKCδ was immunoprecipitated from membrane (blue bars, mem) and cytosol (purple bars, cyto) fractions using specific anti-PKCδ antibody. PKCδ immunoprecipitates were analyzed for PKC activity utilizing an in vitro kinase assay as described in experimental procedures. Each bar represents the mean±SE of 3 determinations in 3 separate experiments. Values are expressed as pmol ATP/dish/min.
# (§1) PKC activity: Specific PKC activity was determined in freshly prepared immunoprecipitates from keratinocyte cultures following appropriate treatments. These lysates were prepared in RIPA buffer without NaF. Activity was measured with the use of the SignaTECT Protein Kinase C Assay System (Promega, Madison, Wis., USA) according to the manufacturer's instructions. PKCα pseudosubstrate was used as the substrate in these studies.
# (§2) In order to determine whether the translocation of PKCδ is sufficient for activation, kinase activity of PKC immunoprecipitates from the cytoplasm and membrane fractions of insulin and IGF1 treated keratinocytes was measured.
# [6] = system: incision wounds on the back of C57BL mice; assay: Effect of PKCα inhibitor and insulin on wound inflammation in vivo (Example 23); settings: for Incidence of severe inflammation I wound (%): treated daily for 7 days, 1 μM of each agent, observed seven days after wounding
# Method: Late and severe inflammatory response in wounds may suppress the process of healing, thus preventing such inflammation from development may promote the wound healing process. Accordingly, the effect of PKCα inhibitor and insulin on wound inflammation was tested in the following experiment. Wounds were effected on the back of C57BL mice by incision and were treated daily for 7 days with: (i) PBS, control; (ii) 1 μM of a PKCα inhibitor (pseudosubstrate myristolated; Calibiochem, USA); (iii) 1 μM insulin (Eli Lilly, USA); or a mixture of 1 μM PKCα inhibitor and 1 μM insulin.
# [7] = system: incision wounds on the back of C57BL mice; assay: Single vs. multiple applications of insulin for wound healing in vivo (Example 20)
# Method: Wounds were effected on the back of 8-10 week old C57BL mice by incision and were treated with different concentrations and frequencies of insulin applications (i.e., seven daily repeat applications vs. a single application). The treated mice were sacrificed seven days after wounding and the areas of treated wounds were measured. The results are presented as mm^2 wound area and each bar represents the mean of six replications±standard deviation (p<0.005).
# Wounds were effected on the back of 8-10 week old C57BL mice by incision and were treated with different concentrations of insulin and frequencies of applications (i.e., seven daily repeat applications vs. a single application). Histological wound sections were performed seven days after wounding and were analyzed for epidermal and dermal closure (wound contraction). Epidermal closure was assessed by Keratin 14 (K14) antibody staining (left panel) and was considered positive if the wound was stained positive across the entire gap. The dermal closure was considered positive if both dermal wound sides could be observed under a light microscope in a single field at ×10 magnification (right panel). The results are presented as percent of wound closure over control and each bar represents the mean of six replications.
# Wounds were effected on the back of 8-10 week old C57BL mice by incision and were treated as follows: (i) insulin 0.1 μM applied daily for 7 days; (ii) insulin 1 μM applied daily for 7 days; (iii) insulin 10 μM applied daily for 7 days; (iv) insulin 1 μM applied once 4 days after wounding; and (v) vehicle (PBS) control applied daily for 7 days. All mice were sacrificed seven days after wounding and their open wound areas were measured.
# Since the observed wounds were covered with a scar tissue it was difficult to correctly assess the actual closure of the wound and the formation of reconstructed epidermis. Therefore the effects of insulin on epidermal and dermal closure of wounds tissue were determined by histological parameters. Epidemial closure of wounds was determined by staining wound sections with Keratin 14 antibody (K14, Babco-Convance, Richmond, Calif., USA) which highlighted the formation of basal cells at the wound gap. Dermal closure of wounds was considered positive if both wound sides the dermis could be observed in a single field observed under a light microscope at ×10 magnification.
# [8] = system: PKCs α, ε, η, or ζ; assay: Kinase activity of other PKC isoforms after insulin stimulation of keratinocytes; format: cell-based, murine; settings: up to 30 minutes following insulin stimulation
# Method: as §1, §2
compound,measurement,setting,value
CCC/C=C/C=C/C(=O)O[C@H]1/C(=C/C(=O)OC)C[C@H]2C[C@H]([C@@H](C)O)OC(=O)C[C@H](O)C[C@@H]3C[C@H](OC(C)=O)C(C)(C)[C@](O)(C[C@@H]4C/C(=C/C(=O)OC)C[C@H](/C=C/C(C)(C)[C@]1(O)O2)O4)O3 [bryostatin 1],translocation of PKCα and δ proteins to the membrane fraction,[1],induced translocation
same,translocation of PKCη and ζ isoforms to the membrane fraction,[1],lesser effect
CC(=O)c1c(O)c(C)c(O)c(Cc2c(O)c3c(c(C(=O)/C=C/c4ccccc4)c2O)OC(C)(C)C=C3)c1O [rottlerin],activation and nuclear translocation of STAT3 after insulin,[2],inhibits activation as well as nuclear translocation of STAT3
"IGF1: growth factor IGF1, a gift from Cytolab (Israel)","maximal stimulation of thymidine incorporation, compared at each concentration",[3]; 24 hours,greater than that by insulin
same,concentration of maximal induction of thymidine incorporation,[3],10^−8 M
same,translocation of PKCδ between cytoplasm and membrane fractions,[4],reduced PKCδ expression in the membrane
same,activity of PKCδ in the membrane fraction,[5],insulin but not IGF1 increased activity of PKCδ
"PKCα inhibitor: PKCα inhibitor of SEQ ID NO:1, PKCα pseudosubstrate myristoylated; Calbiochem (Myristoyl-FARKGALRQ)","decrease of severe wound inflammation incidence, as compared to control",[6]; 1 μM daily for 7 days,33.3%
same,Incidence of severe inflammation I wound (%),[6],40.0%
"insulin: humulinR-recombinant human insulin, purchased from Eli Lilly",effect on severe wound inflammation,[6]; 1 μM daily for 7 days,not effective
same,Incidence of severe inflammation I wound (%),[6],56.0%
same,open wound area,"[7]; 1 μM applied once 4 days after wounding, compared with seven repeat daily applications at 1 μM",substantially more effective
same,open wound area,"[7]; 1 μM daily for 7 days, compared with daily 0.1 μM or 10 μM",significantly more effective
same,epidermal and dermal closure (histology),"[7]; 1 μM daily, compared with daily 0.1 μM or 10 μM",significantly more effective
same,epidermal and dermal closure (histology),"[7]; all insulin treatments (0.1, 1, 10 μM daily; 1 μM single)",effectively promoted epidermal and dermal closure
same,epidermal and dermal closure (histology),"[7]; single application 1 μM, compared with seven repeat daily applications at 1 μM",substantially more effective
same,concentration of maximal induction of thymidine incorporation,[3],10^−7 M
same,increase of thymidine incorporation over untreated cells,"[3]; untransfected cells, 10^−7 M insulin for 24 hours",two to three fold
same,translocation of PKCδ between cytoplasm and membrane fractions,[4],specifically induced translocation of PKCδ from the cytoplasm to the membranal fractions
same,activity of PKCδ in the membrane fraction,[5],increased activity of PKCδ
same,"activation of PKCs α, ε, η, or ζ",[8],no activation
